From US10590120B2, “Pesticidal compositions and methods” (Dow AgroSciences LLC, priority 2016, dated 2020)

Key:
Assay type in all cases: in vivo
[1] = test system: Beet Armyworm (Spodoptera exigua, LAPHEG) ("BAW"); assay: Insecticidal test for beet armyworm, 128-well diet tray assay; settings: 168 h, second instar larvae, 50 μg/cm^2 on artificial diet, 25° C., five to seven days, percent mortality averaged over eight wells
Protocol: Insecticidal Test for Beet Armyworm (Spodoptera exigua, LAPHEG) (“BAW”)
(§1) Bioassays on beet armyworm (BAW; Spodoptera exigua: Lepidoptera) are conducted using a 128-well diet tray assay. One to five second instar BAW larvae are placed in each well (3 mL) of the diet tray that had been previously filled with 1 mL of artificial diet to which 50 μg/cm^2 of the test compound (dissolved in 50 μL of 90:10 acetone-water mixture) had been applied (to each of eight wells) and then allowed to dry. Trays are covered with a clear self-adhesive cover, vented to allow gas exchange, and held at 25° C., 14:10 light-dark for five to seven days. Percent mortality is recorded for the larvae in each well; activity in the eight wells is then averaged.

[2] = test system: Cabbage Looper (Trichloplusia ni, TRIPNI) ("CL"); assay: Insecticidal test for cabbage looper, 128-well diet tray assay; settings: Trichoplusia ni, 168 h; second instar larvae, 50 μg/cm^2 on artificial diet, 25° C., five to seven days, percent mortality averaged over eight wells
Protocol: Insecticidal Test for Cabbage Looper (Trichloplusia ni, TRIPNI) (“CL”)
as §1, with “cabbage looper (CL; Trichloplusia ni:” for “beet armyworm (BAW; Spodoptera exigua:”, “CL” for “BAW”

[3] = test system: Yellow Fever Mosquito (Aedes aegypti, AEDSAE) ("YFM"); assay: Insecticidal test for yellow fever mosquito, 96-well plate larval assay; settings: about 1 day-old larvae, 4000 ppm master solution diluted, room temperature, scored for mortality after 3 days
Protocol: Insecticidal Test for Yellow Fever Mosquito (Aedes aegypti, AEDSAE) (“YFM”)
Master plates containing 400 μg of a molecule dissolved in 100 μL of dimethyl sulfoxide (DMSO) (equivalent to a 4000 ppm solution) are used. A master plate of assembled molecules contains 15 μL per well. To this plate, 135 μL of a 90:10 water/acetone mixture is added to each well. A robot (Biomek® NXP Laboratory Automation Workstation) is programmed to dispense 15 μL aspirations from the master plate into an empty 96-well shallow plate (“daughter” plate). There are 6 reps (“daughter” plates) created per master. The created “daughter” plates are then immediately infested with YFM larvae.
The day before plates are to be treated, mosquito eggs are placed in Millipore water containing liver powder to begin hatching (4 g. into 400 mL). After the “daughter” plates are created using the robot, they are infested with 220 μL of the liver powder/larval mosquito mixture (about 1 day-old larvae). After plates are infested with mosquito larvae, a non-evaporative lid is used to cover the plate to reduce drying. Plates are held at room temperature for 3 days prior to grading. After 3 days, each well is observed and scored based on mortality.

SMILES	pest or weed control at 50 µg/cm2 [1] [%]	pest or weed control at 50 µg/cm2 [2] [%]	YFM % Control [3]
CCc1cccc(C)c1N1C(=O)CS/C1=N\C(=O)N/N=C/c1ccc(-c2ncn(-c3ccc(OC(F)(F)F)cc3)n2)cc1 [Compound A3, N—((Z)-3-(2-Ethyl-6-methylphenyl)-4-oxothiazolidin-2-ylidene)-2-((E)-4-(1-(4-(trifluoromethoxy)phenyl)-1H-1,2,4-triazol-3-yl)benzylidene)hydrazine-1-carboxamide]	50 to 100	50 to 100	
Cc1ccc(OCC(F)(F)F)c(N2C(=O)CS/C2=N\C(=O)N/N=C/c2ccc(-c3ncn(-c4ccc(OC(F)(F)F)cc4)n3)cc2)c1 [Compound A6, N—((Z)-3-(5-Methyl-2-(2,2,2-trifluoroethoxy)phenyl)-4-oxothiazolidin-2-ylidene)-2-((E)-4-(1-(4-(trifluoromethoxy)phenyl)-1H-1,2,4-triazol-3-yl)benzylidene)hydrazine-1-carboxamide]	50 to 100	50 to 100	
CC(C)c1ccccc1N1C(=O)CS/C1=N\C(=O)N/N=C/c1ccc(-c2ncn(-c3ccc(OC(F)(F)F)cc3)n2)cc1 [Compound A2, N—((Z)-3-(2-Isopropylphenyl)-4-oxothiazolidin-2-ylidene)-2-((E)-4-(1-(4-(trifluoromethoxy)phenyl)-1H-1,2,4-triazol-3-yl)benzylidene)hydrazine-1-carboxamide]	50 to 100	50 to 100	A (80-100)
Cc1ccc(C(F)(F)F)c(N2C(=O)CS/C2=N\C(=O)N/N=C/c2ccc(-c3ncn(-c4ccc(OC(F)(F)F)cc4)n3)cc2)c1 [Compound A9, N—((Z)-3-(5-methyl-2-(trifluoromethyl)phenyl)-4-oxothiazolidin-2-ylidene)-2-((E)-4-(1-(4-(trifluoromethoxy)phenyl)-1H-1,2,4-triazol-3-yl)benzylidene)hydrazine-1-carboxamide]	50 to 100	50 to 100	
CCOc1ccccc1N1C(=O)CS/C1=N\C(=O)N/N=C/c1ccc(-c2ncn(-c3ccc(OC(F)(F)F)cc3)n2)cc1 [Compound A8, N—((Z)-3-(2-Ethoxyphenyl)-4-oxothiazolidin-2-ylidene)-2-((E)-4-(1-(4-(trifluoromethoxy)phenyl)-1H-1,2,4-triazol-3-yl)benzylidene)hydrazine-1-carboxamide]	50 to 100	50 to 100	
Cc1ccc(Cl)c(N2C(=O)CS/C2=N\C(=O)N/N=C/c2ccc(-c3ncn(-c4ccc(OC(F)(F)F)cc4)n3)cc2)c1 [Compound A4, N—((Z)-3-(2-Chloro-5-methylphenyl)-4-oxothiazolidin-2-ylidene)-2-((E)-4-(1-(4-(trifluoromethoxy)phenyl)-1H-1,2,4-triazol-3-yl)benzylidene)hydrazine-1-carboxamide]	50 to 100	50 to 100	A (80-100)
COc1ccc(N2C(=O)CS/C2=N\C(=O)N/N=C/c2ccc(-c3ncn(-c4ccc(OC(F)(F)F)cc4)n3)cc2)c(C)c1 [Compound A7, N—((Z)-3-(4-Methoxy-2-methylphenyl)-4-oxothiazolidin-2-ylidene)-2-((E)-4-(1-(4-(trifluoromethoxy)phenyl)-1H-1,2,4-triazol-3-yl)benzylidene)hydrazine-1-carboxamide]	50 to 100	50 to 100	A (80-100)
CCOc1ccc(C)cc1N1C(=O)CS/C1=N\C(=O)N/N=C/c1ccc(-c2ncn(-c3ccc(OC(F)(F)F)cc3)n2)cc1 [Compound A5, N—((Z)-3-(2-Ethoxy-5-methylphenyl)-4-oxothiazolidin-2-ylidene)-2-((E)-4-(1-(4-(trifluoromethoxy)phenyl)-1H-1,2,4-triazol-3-yl)benzylidene)hydrazine-1-carboxamide]	50 to 100	50 to 100	
Cc1ccc(C(C)C)c(N2C(=O)CS/C2=N\C(=O)N/N=C/c2ccc(-c3ncn(-c4ccc(OC(F)(F)F)cc4)n3)cc2)c1 [Compound A1, N—((Z)-3-(2-isopropyl-5-methylphenyl)-4-oxothiazolidin-2-ylidene)-2-((E)-4-(1-(4-(trifluoromethoxy)phenyl)-1H-1,2,4-triazol-3-yl)benzylidene)hydrazine-1-carboxamide]	50 to 100	50 to 100	
